Type in all cases: functional
Test [1] concerns P388. Description: Antileukemic activity against mouse P388 cells allografted in mouse assessed as increase in host survival at 4 mg/kg relative to control.
The subject of test [2] is P388. Description: Antileukemic activity against mouse P388 cells allografted in mouse assessed as increase in host survival at 0.5 mg/kg relative to control.
The subject of test [3] is P388. Kind of test: Antileukemic activity against mouse P388 cells allografted in mouse assessed as increase in host survival at 8 mg/kg relative to control.
For test [4], the system named is P388. Kind of test: Antileukemic activity against mouse P388 cells allografted in mouse assessed as increase in host survival at 2 mg/kg relative to control.
Test [5] deals with P388. Kind of test: Antileukemic activity against mouse P388 cells allografted in mouse assessed as increase in host survival at 1 mg/kg relative to control.
Test [6] deals with P388. Description: Antileukemic activity against mouse P388 cells allografted in mouse assessed as increase in host survival at 1.25 mg/kg relative to control.
Test [7] has as its system P388. Description: Antileukemic activity against mouse P388 cells allografted in mouse assessed as increase in host survival at 5 mg/kg relative to control.
Test [8] relates to P388. Kind of test: Antileukemic activity against mouse P388 cells allografted in mouse assessed as increase in host survival at 2.5 mg/kg relative to control.
In test [9] the test system is P388. Description: Antileukemic activity against mouse P388 cells allografted in mouse assessed as increase in host survival at 10 mg/kg relative to control.
Test [10] concerns P388. Kind of test: Antileukemic activity against mouse P388 cells allografted in mouse assessed as increase in host survival at 0.25 mg/kg relative to control.

For `CC(=O)O[C@@H]1C(=O)C=C(C)[C@@H]2[C@@H](OC(=O)C=C(C)C)[C@H]3OC(=O)C[C@H]4[C@@H](C)[C@@H](O)[C@]5(O)OC[C@]34[C@H]5[C@@]12C`, the T/C (usually the result in the treated group divided by that in the control group, in per cent) in the test with P388 [1] came out at 142%; with P388 [2], 118%; in the test with P388 [3] it was 142%; in the test on P388 [4], 132%; with P388 [5], 121%.

For the molecule `CC(=O)OC[C@]12[C@@H]3OC(=O)C[C@H]1[C@@H](C)[C@@H](OC(C)=O)C(=O)[C@@H]2[C@@]1(C)[C@H](OC(C)=O)C(=O)C=C(C)[C@@H]1[C@H]3OC(=O)C=C(C)C`, the T/C in the test on P388 [1] stood at 101%; with P388 [2], 100%; with P388 [3], 102%; with P388 [4], 102%; with P388 [5], 97%.

Consider `CC(=O)O[C@@H]1[C@H](C)[C@@H]2CC(=O)O[C@@H]3[C@H](OC(=O)C=C(C)C)[C@H]4C(C)=CC(=O)[C@@H](OC(C)=O)[C@]4(C)[C@H]4[C@@]1(O)OC[C@@]342`, for which the T/C in the test with P388 [6] is reported as 104%; in the test with P388 [7], 107%; in the test on P388 [8], 107%; in the test on P388 [9] it was 107%.

Take `CC(C)=CC(=O)O[C@@H]1[C@H]2C(C)=CC(=O)[C@H](O)[C@]2(C)[C@H]2[C@]3(O)OC[C@@]24[C@@H]1OC(=O)C[C@H]4[C@@H](C)[C@H]3O`: the T/C came to 161% with P388 [2], 191% in the test with P388 [4], 198% in the test with P388 [5] and 145% in the test on P388 [10].

For the origin of these results see ChEMBL document CHEMBL3243956, “Plant antitumor agents. 17. Structural requirements for antineoplastic activity in quassinoids” (1978).
